For 33 compounds, IC50 results are on record in patent US9440950B2, “Arginine methyltransferase inhibitors and uses thereof” (Epizyme, Inc., priority 2013, dated 2016).

This test addresses T1, human PRMT1 (Homo sapiens, UniProt Q99873).
T1 construct: GST-tagged PRMT1; made in house; host or cells: High Five insect cells (baculovirus, pFastBacI)
As to the kind of experiment: PRMT1 Biochemical Assay. To be noted: peptide substrate, 3H-SAM Flashplate assay. The text has this: S-adenosylmethionine (SAM), S-adenosylhomocysteine (SAH), bicine, Tween20, dimethylsulfoxide (DMSO), bovine skin gelatin (BSG), and Tris(2-carboxyethyl)phosphine hydrochloride solution (TCEP) were purchased from Sigma-Aldrich at the highest level of purity possible. ^3H-SAM was purchase from American Radiolabeled Chemicals with a specific activity of 80 Ci/mmol. 384-well streptavidin Flashplates were purchased from PerkinElmer.
Peptide representative of human histone H4 residues 36-50 was synthesized with an N-terminal linker-affinity tag motif and a C-terminal amide cap by 21st Century Biochemicals. The peptide was purified by high-performance liquid chromatography (HPLC) to greater than 95% purity and confirmed by liquid chromatography mass spectrometry (LC-MS). The sequence was Biot-Ahx-[…]-amide (SEQ ID NO.: 1).
Full-length human PRMT1 isoform 1 (NM_001536.5) transcript clone was amplified from an HEK 293 cDNA library, incorporating flanking 5′ sequence encoding a FLAG tag ([…]) (SEQ ID NO.:2) fused directly to Met 1 of PRMT1. The amplified gene was subcloned into pFastBacI (Life Technologies) modified to encode an N-terminal GST tag and a TEV cleavage sequence ([…] […] […] […])(SEQ ID NO.:3) fused to Asp of the Flag tag of PRMT1.
Recombinant baculovirus were generated according to Bac-to-Bac kit instructions (Life Technologies). Protein over-expression was accomplished by infecting exponentially growing High Five insect cell culture at 1.5×10^6 cell/ml with 1:100 ratio of virus. Infections were carried out at 27° C. for 48 hours, harvested by centrifugation, and stored at −80° C. for purification.
GST-tagged PRMT1 was eluted with 50 mM Tris, 2 mM glutathione, pH 7.8, dialysed in buffer A and concentrated to 1 mg/mL. The purity of recovered protein was 73%. Reference: Wasilko, D. J. and S. E. Lee: “TIPS: titerless infected-cells preservation and scale-up” Bioprocess J., 5 (2006), pp. 29-32.
General Procedure for PRMT1 Enzyme Assays on Peptide Substrates.
The assays were all performed in a buffer consisting of 20 mM Bicine (pH=7.6), 1 mM TCEP, 0.005% BSG, and 0.002% Tween 20, prepared on the day of use. Compounds in 100% DMSO (1 ul) were spotted into a polypropylene 384-well V-bottom plates (Greiner) using a Platemate Plus outfitted with a 384-channel head (Thermo Scientific). DMSO (1 ul) was added to Columns 11, 12, 23, 24, rows A-H for the maximum signal control and 1 ul of SAH, a known product and inhibitor of PRMT1, was added to columns 11, 12, 23, 24, rows I-P for the minimum signal control. A cocktail (40 ul) containing the PRMT1 enzyme was added by Multidrop Combi (Thermo-Fisher). The compounds were allowed to incubate with PRMT1 for 30 min at room temperature, then a cocktail (10 ul) containing SAM and peptide was added to initiate the reaction (final volume=51 ul). The final concentrations of the components were as follows: PRMT1 was 0.5 nM, ^3H-SAM was 200 nM, non-radiolabeled SAM was 1.5 uM, peptide was 20 nM, SAH in the minimum signal control wells was 1 mM, and the DMSO concentration was 2%. The assays were stopped by the addition of non-radiolabeled SAM (10 ul) to a final concentration of 300 uM, which dilutes the ^3H-SAM to a level where its incorporation into the peptide substrate is no longer detectable. 50 ul of the reaction in the 384-well polypropylene plate was then transferred to a 384-well Flashplate and the biotinylated peptides were allowed to bind to the streptavidin surface for at least 1 hour before being washed once with 0.1% Tween20 in a Biotek ELx405 plate washer. The plates were then read in a PerkinElmer TopCount plate reader to measure the quantity of ^3H-labeled peptide bound to the Flashplate surface, measured as disintegrations per minute (dpm) or alternatively, referred to as counts per minute (cpm).
Where dpm=disintegrations per minute, cmpd=signal in assay well, and min and max are the respective minimum and maximum signal controls. […]

T1 sequence (Q99873 with tags, fused parts or gaps): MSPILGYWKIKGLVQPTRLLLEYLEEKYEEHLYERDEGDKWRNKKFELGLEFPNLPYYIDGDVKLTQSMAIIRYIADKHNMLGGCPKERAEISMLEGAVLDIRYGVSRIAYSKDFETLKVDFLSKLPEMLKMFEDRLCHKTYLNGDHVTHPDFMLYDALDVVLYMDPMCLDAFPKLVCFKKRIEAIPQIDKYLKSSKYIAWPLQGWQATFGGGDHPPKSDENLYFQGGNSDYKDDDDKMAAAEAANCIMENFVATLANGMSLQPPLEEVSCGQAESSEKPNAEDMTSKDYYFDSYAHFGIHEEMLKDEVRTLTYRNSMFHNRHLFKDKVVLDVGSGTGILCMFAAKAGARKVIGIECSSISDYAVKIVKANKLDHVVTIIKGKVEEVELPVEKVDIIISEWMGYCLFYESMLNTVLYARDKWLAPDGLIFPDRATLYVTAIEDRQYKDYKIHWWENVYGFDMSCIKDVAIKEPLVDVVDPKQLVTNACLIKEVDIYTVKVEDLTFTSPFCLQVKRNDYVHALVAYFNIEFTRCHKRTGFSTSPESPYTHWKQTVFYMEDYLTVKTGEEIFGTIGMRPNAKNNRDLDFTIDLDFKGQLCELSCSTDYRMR

One may read the IC50 as the midpoint of a concentration-inhibition curve. Low readings indicate greater potency, high ones weaker potency. In turn, `COc1ncccc1-c1n[nH]cc1CN(C)CCN` [Compound 15] displayed an IC50 of 101 to 1000 nM.
The figure for `CN(CCN)Cc1c[nH]nc1-c1cncc(S(C)(=O)=O)c1` [Compound 4] is 1010 to 3000 nM; for `COc1cc(-c2n[nH]cc2CN(C)CCN)ccn1` [Compound 11] it is 101 to 1000 nM; for `Cc1cncc(-c2n[nH]cc2CN(C)CCN)c1` [Compound 6] it is ≥ 10000 nM.
The figure for `CCN(CC(C)C)c1ccc(-c2n[nH]cc2CN(C)CCNC)cn1` [Compound 36] is ≤ 100 nM; for `CNCCN(C)Cc1c[nH]nc1-c1ccc(N(CC(C)C)CC(C)C)nc1` [Compound 31] it is ≤ 100 nM.
The figure for `CN(CCN)Cc1c[nH]nc1-c1cnccc1C(F)(F)F` [Compound 29] is 1010 to 3000 nM; for `COc1ccncc1-c1n[nH]cc1CN(C)CCN` [Compound 16] it is 101 to 1000 nM.
`CN(CCN)Cc1c[nH]nc1-c1ccccn1` [Compound 27] came in with an IC50 of 3010 to 10000 nM.
The figure for `CN(CCN)Cc1c[nH]nc1-c1cncc(C#N)c1` [Compound 18] is 101 to 1000 nM.
As to `CN(CCN)Cc1c[nH]nc1-c1cncc(F)c1` [Compound 7], the IC50 is ≤ 100 nM.
As for `COc1ncc(Cl)cc1-c1n[nH]cc1CN(C)CCN` [Compound 14], the IC50 lay in the range of 1010 to 3000 nM.
As for `CC(C)Oc1ccc(-c2n[nH]cc2CN(C)CCN)cn1` [Compound 22], the figure is ≤ 100 nM; as for `CNCCN(C)Cc1c[nH]nc1-c1ccc(N(C)CCC(C)C)nc1` [Compound 30], ≤ 100 nM.
The figure for `CN(CCN)Cc1c[nH]nc1-c1ccc(C(F)(F)F)nc1` [Compound 13, N^1-methyl-N^1-((3-(6-(trifluoromethyl)pyridin-3-yl)-1H-pyrazol-4-yl)methyl)ethane-1,2-diamine] is ≤ 100 nM; for `Cc1cc(-c2n[nH]cc2CN(C)CCN)cnc1Cl` [Compound 10] it is ≤ 100 nM; for `Cc1ccncc1-c1n[nH]cc1CN(C)CCN` [Compound 17] it is 101 to 1000 nM.
As for `CC(C)CNc1ccc(-c2n[nH]cc2CN(C)CCN)cn1` [Compound 26], the figure is ≤ 100 nM.
On to `CN(CCN)Cc1c[nH]nc1-c1ccc(N2CCOCC2)nc1` [Compound 20], for which the IC50 was ≤ 100 nM.
The figure for `CN(CCN)Cc1c[nH]nc1-c1cncc(Cl)c1` [Compound 19] is ≤ 100 nM; for `CN(CCN)Cc1c[nH]nc1-c1ccc(NCc2ccccc2)nc1` [Compound 25] it is ≤ 100 nM; for `COc1ccc(-c2n[nH]cc2CN(C)CCN)cn1` [Compound 5] it is 101 to 1000 nM.
The figure for `CNCCN(C)Cc1c[nH]nc1-c1ccc(N(C)CC(C)C)nc1` [Compound 32, N^1-((3-(6-(isobutyl(methyl)amino)pyridin-3-yl)-1H-pyrazol-4-yl)methyl)-N^1,N^2-dimethylethane-1,2-diamine] is ≤ 100 nM; for `CN(CCN)Cc1c[nH]nc1-c1cccnc1` [Compound 8] it is 101 to 1000 nM.
Regarding `COc1cc(-c2n[nH]cc2CN(C)CCN)c(Cl)cn1` [Compound 12], the IC50 fell in the range of 1010 to 3000 nM.
On to `CN(CCN)Cc1c[nH]nc1-c1ccc(C#N)nc1` [Compound 28, 5-(4-(((2-aminoethyl)(methyl)amino)methyl)-1H-pyrazol-3-yl)picolinonitrile], for which the IC50 is ≤ 100 nM.
Regarding `CN(CCN)Cc1c[nH]nc1-c1ccncc1` [Compound 9], the IC50 is ≤ 100 nM.
The figure for `CC(C)CN(C)c1ccc(-c2n[nH]cc2CN(C)CCN)cn1` [Compound 21] is ≤ 100 nM; for `CN(CCN)Cc1c[nH]nc1-c1ccc(N(C)Cc2ccccc2)nc1` [Compound 23] it is ≤ 100 nM; for `CCN(CCC(C)C)c1ccc(-c2n[nH]cc2CN(C)CCNC)cn1` [Compound 34, N^1-((3-(6-(ethyl(isopentyl)amino)pyridin-3-yl)-1H-pyrazol-4-yl)methyl)-N^1,N^2-dimethylethane-1,2-diamine] it is ≤ 100 nM.
As for `CNCCN(C)Cc1c[nH]nc1-c1ccc(N(C)C(C)C)nc1` [Compound 33, N^1-((3-(6-(isopropyl(methyl)amino)pyridin-3-yl)-1H-pyrazol-4-yl)methyl)-N^1,N^2-dimethylethane-1,2-diamine], the figure is ≤ 100 nM.
The figure for `CCN(CC)c1ccc(-c2n[nH]cc2CN(C)CCN)cn1` [Compound 24] is 101 to 1000 nM; for `CNCCN(C)Cc1c[nH]nc1-c1ccc(OCC(C)C)nc1` [Compound 35, N^1-((3-(6-iso-butoxypyridin-3-yl)-1H-pyrazol-4-yl)methyl)-N^1,N^2-dimethylethane-1,2-diamine] it is ≤ 100 nM.
